Like-named read-outs stand apart in the source and are kept apart here.

Data set [1] relates to panel of 60 human tumor cell lines. As to the kind of experiment: panel of 60 human tumor cell lines, whole panel or sub-panel (single concentration screen, summaries). It is filed as cell-based. As to conditions: range over 6a and 6e.
Data set [2] in a line: hydrolytic stability in human plasma. It is filed as in vitro ADME.
Data set [3] concerns HL-60(TB). As to the kind of experiment: cells. As to conditions: Homo sapiens, HL-60.
In data set [4] the test system is CCRF-CEM. As to the kind of experiment: panel of 60 human tumor cell lines, growth inhibition (Leukemia). The settings on record: Homo sapiens.
The test system of data set [5] is K-562. Described as above. As to conditions: Homo sapiens, K562.
Data set [6] concerns MOLT-4. The description is as above. As to conditions: Homo sapiens, MOLT-4.
In data set [7] the test system is SR. Described as above. The settings on record: Homo sapiens.
For data set [8], the system named is LOX IMVI. The data set can be described thus: panel of 60 human tumor cell lines, growth inhibition (Melanoma). As to conditions: Homo sapiens, 5-dose assay.
In data set [9] the test system is MALME-3M. Described as above. The settings on record: Homo sapiens, Malme-3M.
Data set [10] concerns M14. The description is as above. As to conditions: Homo sapiens, M14.
The subject of data set [11] is MDA-MB-435. The data set is described as above. The settings on record: Homo sapiens, MDA-MB-435.
For data set [12], the system named is RPMI-8226. The data set can be described thus: panel of 60 human tumor cell lines, growth inhibition (Leukemia). As to conditions: Homo sapiens, RPMI-8226.
For data set [13], the system named is SF-539. As to the kind of experiment: panel of 60 human tumor cell lines, growth inhibition (CNS Cancer). The settings on record: Homo sapiens, SF-539.
In data set [14] the test system is SNB-75. The description is as above. As to conditions: Homo sapiens, SNB-75.
Data set [15] has as its system COLO 205. As to the kind of experiment: panel of 60 human tumor cell lines, growth inhibition (Colon Cancer). The settings on record: Homo sapiens, COLO 205.
For data set [16], the system named is HCT-116. Described as above. The settings on record: Homo sapiens, HCT-116, HCT-116; 5-dose assay.
For data set [17], the system named is SW-620. The description is as above. As to conditions: Homo sapiens, SW-620, SW-620; 5-dose assay.
The subject of data set [18] is ACHN. The data set can be described thus: panel of 60 human tumor cell lines, growth inhibition (Renal Cancer). As to conditions: Homo sapiens.
The subject of data set [19] is CAKI-1. The description is as above. The settings on record: Homo sapiens, CAKI-1.
In data set [20] the test system is RXF 393. Described as above. As to conditions: Homo sapiens, RXF 393, RXF 393; 5-dose assay.
The subject of data set [21] is TK-10. Described as above. The settings on record: Homo sapiens, TK-10, TK-10; 5-dose assay.
For data set [22], the system named is MCF7. The data set can be described thus: panel of 60 human tumor cell lines, growth inhibition (Breast Cancer). The settings on record: Homo sapiens, MCF7, MCF7; 5-dose assay.
For data set [23], the system named is BT-549. Described as above. As to conditions: Homo sapiens, BT-549.
For data set [24], the system named is T-47D. The description is as above. The settings on record: Homo sapiens, T47D.
For data set [25], the system named is MDA-MB-468. The data set is described as above. As to conditions: Homo sapiens, MDA-MB-468.
Data set [26] relates to IGROV1. The data set can be described thus: panel of 60 human tumor cell lines, growth inhibition (Ovarian Cancer). The settings on record: Homo sapiens, IGROV-1.
Data set [27] concerns OVCAR-3. The description is as above. The settings on record: Homo sapiens, OVCAR-3.
For data set [28], the system named is DU-145. As to the kind of experiment: panel of 60 human tumor cell lines, growth inhibition (Prostate Cancer). As to conditions: Homo sapiens, DU-145.
Data set [29] deals with HOP-92. As to the kind of experiment: panel of 60 human tumor cell lines, growth inhibition (Non-Small Cell Lung Cancer). The settings on record: Homo sapiens, HOP-92, HOP-92; 5-dose assay.
The subject of data set [30] is NCI-H522. Described as above. As to conditions: Homo sapiens, NCI-H522.
Data set [31] concerns CCRF-CEM. The settings on record: values obtained from NCI database; cited from earlier work.
In data set [32] the test system is HL-60(TB). The settings on record: values obtained from NCI database; cited from earlier work.
In data set [33] the test system is K-562. The settings on record: values obtained from NCI database; cited from earlier work.
For data set [34], the system named is MOLT-4. As to conditions: values obtained from NCI database; cited from earlier work.
Data set [35] has as its system HOP-92. As to conditions: values obtained from NCI database; cited from earlier work.
In data set [36] the test system is NCI-H522. As to conditions: values obtained from NCI database; cited from earlier work.
For data set [37], the system named is COLO 205. The settings on record: values obtained from NCI database; cited from earlier work.
The test system of data set [38] is HCT-116. As to conditions: values obtained from NCI database; cited from earlier work.
Data set [39] relates to SW-620. As to conditions: values obtained from NCI database; cited from earlier work.
Data set [40] concerns SF-539. As to conditions: values obtained from NCI database; cited from earlier work.
Data set [41] has as its system LOX IMVI. As to conditions: values obtained from NCI database; cited from earlier work.
In data set [42] the test system is M14. As to conditions: values obtained from NCI database; cited from earlier work.
Data set [43] has as its system MDA-MB-435. The settings on record: values obtained from NCI database; cited from earlier work.
Data set [44] concerns IGROV1. The settings on record: values obtained from NCI database; cited from earlier work.
Data set [45] relates to OVCAR-3. As to conditions: values obtained from NCI database; cited from earlier work.
Data set [46] has as its system ACHN. The settings on record: values obtained from NCI database; cited from earlier work.
Data set [47] concerns CAKI-1. The settings on record: values obtained from NCI database; cited from earlier work.
Data set [48] concerns RXF 393. As to conditions: values obtained from NCI database; cited from earlier work.
For data set [49], the system named is TK-10. The settings on record: values obtained from NCI database; cited from earlier work.
In data set [50] the test system is DU-145. The settings on record: values obtained from NCI database; cited from earlier work.
Data set [51] deals with MCF7. As to conditions: values obtained from NCI database; cited from earlier work.
For data set [52], the system named is BT-549. The settings on record: values obtained from NCI database; cited from earlier work.
The test system of data set [53] is T-47D. As to conditions: values obtained from NCI database; cited from earlier work.
For data set [54], the system named is RPMI-8226. As to conditions: values obtained from NCI database; cited from earlier work.
Data set [55] has as its system AML 052308 cells.
From the text: (§1) Derivatives were screened for antileukemic activity against AML cells in culture (See FIGS. 1-7).
Data set [56] deals with M9 ENL cells. The data set can be described thus: antileukemic activity, cell viability. As to conditions: M9 ENL cell line.
Method: Carbamate and carbonate derivatives of MMB were also screened for activity against M9 ENL cells at concentrations of 5, 10 and 20 μM (FIG. 10). […] Additionally, succinic amide derivatives of MMB were screened for activity against M9 ENL cells at concentrations of 5, 10 and 20 μM (FIG. 11).
In data set [57] the test system is AML 123009 primary isolate. The data set can be described thus: antileukemic activity, cell viability.
Data set [58] relates to AML 100510 primary isolate. As to the kind of experiment: antileukemic activity, cell viability.
The subject of data set [59] is AML 052308 cells. The data set can be described thus: cells. The settings on record: read-out: LC50.
From the text: as §1

Turning to `C=C1C(=O)O[C@H]2[C@H]1CC/C(COC(=O)N1CCC(F)(F)CC1)=C\CC[C@@]1(C)O[C@@H]21` [6a, ((1aR,7aS,10aS,10bS,E)-1a-methyl-8-methylene-9-oxo-1a,2,3,6,7,7a,8,9,10a,10b-decahydrooxireno[2′,3′:9,10]cyclodeca[1,2-b]furan-5-yl)methyl-4,4-difluoropiperidine-1-carboxylate], the melting point – broadly, the temperature of the solid-liquid transition – worked out at 150 °C. Besides, the GI50 – broadly, the concentration at which growth is held to half of that of the control – in [1] (sub-panel breast cancer) was 570 to 3070 nM. In addition, the concentration for 50% growth inhibition (GI50) in data set [1] (sub-panel colon cancer) is 1120 to 2060 nM. Also, the GI50 in data set [1] (sub-panel melanoma) is 460 to 2840 nM. Further, the GI50 in [1] (sub-panel non-small cell lung cancer) lay within 650 to 1450 nM. This compound also returned a GI50 in data set [1] (sub-panel renal cancer) of 900 to 2600 nM. Moreover, the half-life (as a rule, the time in which the quantity being followed falls by half) in data set [2] is 8 h. Besides, growth in data set [3] was halved (GI50) at 2040 nM. In addition, the GI50 in data set [4] (5-dose assay) worked out at 680 nM. In data set [4] (leukemia cell line CCRF-CEM), this compound had a GI50 of 680 nM. Also, the GI50 in data set [5] was 3450 nM. Also, in data set [6], growth was halved (GI50) at 2050 nM. The compound further displayed a GI50 in data set [7] of 1380 nM. Moreover, it took 2230 nM to inhibit growth in data set [8] by half (GI50). The compound also showed a GI50 in [9] of 1900 nM. Further, the GI50 in [10] is 2840 nM. The compound also yielded a GI50 in data set [11] of 460 nM. This compound also displayed a GI50 in data set [12] of 1980 nM. This compound also showed a GI50 in [13] of 1980 nM. In data set [14], the GI50 is 6130 nM. In data set [15], this compound showed a GI50 of 2060 nM. Further, the GI50 in [16] was found to be 1410 nM. The compound further returned a GI50 in data set [17] of 1460 nM. In data set [18], this compound registered a GI50 of 1790 nM. Also, halving of growth in [19] (GI50) required 2030 nM. Further, it took 1200 nM to inhibit growth in [20] by half (GI50). In [21], this compound yielded a GI50 of 2600 nM. This compound came in with a GI50 in data set [22] of 1620 nM. Moreover, growth in data set [23] was halved (GI50) at 2690 nM. Growth in data set [24] was halved (GI50) at 3070 nM. The compound also displayed a GI50 in [25] of 570 nM. For the same compound, the GI50 in data set [26] worked out at 2310 nM. In data set [27], this compound gave a GI50 of 1690 nM. For the same compound, growth in data set [28] was halved (GI50) at 2440 nM. Further, the GI50 in [29] amounted to 1450 nM. In addition, the GI50 in data set [30] was 1250 nM.
`C=C1C(=O)O[C@H]2[C@H]1CC/C(COC(=O)NCCCn1ccnc1)=C\CC[C@@]1(C)O[C@@H]21` [6f, ((1aR,7aS,10aS,10bS,E)-1a-methyl-8-methylene-9-oxo-1a,2,3,6,7,7a,8,9,10a,10b-decahydrooxireno[2′,3′:9,10]cyclodeca[1,2-b]furan-5-yl)methyl-(3-(1H-imidazol-1-yl)-propyl)carbamate] came in with a melting point of 70 °C.
Still for that read-out and setting: the result for `C=C1C(=O)O[C@H]2[C@H]1CC/C(COC(=O)NCCCN1CCOCC1)=C\CC[C@@]1(C)O[C@@H]21` [6g, ((1aR,7aS,10aS,10bS,E)-1a-methyl-8-methylene-9-oxo-1a,2,3,6,7,7a,8,9,10a,10b-decahydrooxireno[2′,3′:9,10]-cyclodeca[1,2-b]furan-5-yl)methyl-(3-morpholinopropyl)carbamate] reads 60 °C.
Take `C/C1=C\CC[C@@]2(C)O[C@@H]2[C@H]2OC(=O)[C@H](CN(C)C)[C@@H]2CC1` [DMAPT, dimethylaminoparthenolide]: the GI50 in [31] was 1990 nM; in data set [32] it was 1580 nM; in data set [33], 2510 nM; in [34] it was 3160 nM; in [35], 10000 nM; in data set [36], 2510 nM. For the same compound, the GI50 in [37] was 31600 nM; in data set [38], 5010 nM; in [39] it was 3980 nM; in data set [40] it was 2510 nM; in data set [41], 10000 nM; in [42], 15800 nM. Also, the concentration for 50% growth inhibition (GI50) in data set [43] is 7940 nM; in [44], 19900 nM; in data set [45] it was 12500 nM; in data set [46], 15800 nM; in [47], 12500 nM; in data set [48] it was 15800 nM. The GI50 in [49] is 3160 nM; in data set [50], 5010 nM; in data set [51] it was 5010 nM; in data set [52], 5010 nM; in data set [53] it was 39800 nM; in data set [54], 2510 nM.
For the compound `C=C1C(=O)O[C@H]2[C@H]1CC/C(COC(=O)NCCCn1ccnc1)=C\CC[C@@]1(C)O[C@@H]21` [JVM 58], the “cytotoxicity compared to MMB” value in [55] is recorded as “less active than MMB”.
On the same count and under the same terms, in the case of `C=C1C(=O)O[C@H]2[C@H]1CC/C(COC(=O)NCc1ccccn1)=C\CC[C@@]1(C)O[C@@H]21` [JVM 74] it was “almost equal cytotoxicity to MMB”.
Consider `C=C1C(=O)O[C@H]2[C@H]1CC/C(COC(=O)CCN1CCCCC1)=C\CC[C@@]1(C)O[C@@H]21` [JVM 88], for which the “antileukemic activity compared to MMB” value in [56], in [57] and in data set [58] was “good antileukemic activity compared to MMB” throughout.
`C=C1C(=O)OC2C1CC/C(CO)=C\CCC1(C)OC21` (centres unmarked) [MMB, Melampomagnolide B]: the CC50 in [59] came to 16000 nM.

(Values after US9469650B2, “Melampomagnolide B derivatives” (BOARD OF TRUSTEES OF THE UNIVERSITY OF ARKANSAS, priority 2013, dated 2016).)
